Conditions: 101.33 kPa, Liquid crystal of unknown type; for speed of sound: Sing-around technique in a fixed-path interferometer; for mass density: Vibrating tube method

CCCCCCCC/C=C\CCCCCCCC(=O)[O-].OCC[NH2+]CCO [bis(2-hydroxyethyl)ammonium oleate]
Conditions	mass density [kg/m3]	speed of sound [m/s]
278.14 K	978.16	1601.5
278.39 K	977.996	1600.3
278.64 K	977.834	1599.2
278.89 K	977.67	1598.1
279.14 K	977.506	1596.9
279.39 K	977.342	1595.7
279.64 K	977.177	1594.6
279.89 K	977.017	1593.5
280.15 K	976.852	1592.3
280.4 K	976.689	1591.2
280.65 K	976.525	1590.1
280.89 K	976.361	1589
281.15 K	976.197	1587.9
281.4 K	976.035	1586.8
281.65 K	975.87	1585.7
281.9 K	975.706	1584.6
282.15 K	975.544	1583.5
282.4 K	975.38	1582.5
282.65 K	975.217	1581.4
282.9 K	975.053	1580.3
283.15 K	974.89	1579.3
283.4 K	974.726	1578.2
283.65 K	974.562	1577.2
283.9 K	974.401	1576.2
284.15 K	974.236	1575.1
284.4 K	974.073	1574
284.65 K	973.91	1573
284.9 K	973.745	1572
285.15 K	973.584	1571
285.4 K	973.419	1569.9
285.65 K	973.258	1568.9
285.9 K	973.092	1567.9
286.15 K	972.93	1566.9
286.4 K	972.766	1565.8
286.65 K	972.604	1564.8
286.9 K	972.442	1563.8
287.15 K	972.275	1562.8
287.4 K	972.113	1561.8
287.65 K	971.951	1560.8
287.9 K	971.788	1559.8
288.15 K	971.625	1558.8
288.4 K	971.46	1557.8
288.65 K	971.299	1556.7
288.9 K	971.135	1555.8
289.15 K	970.972	1554.8
289.4 K	970.811	1553.8
289.65 K	970.645	1552.8
289.9 K	970.483	1551.8
290.15 K	970.32	1550.8
290.4 K	970.158	1549.8
290.65 K	969.995	1548.9
290.9 K	969.831	1547.9
291.15 K	969.668	1546.9
291.4 K	969.506	1545.9
291.65 K	969.343	1544.9
291.9 K	969.18	1543.8
292.15 K	969.016	1542.7
292.4 K	968.854	1541.7
292.65 K	968.691	1540.8
292.9 K	968.527	1539.8
293.15 K	968.365	1538.9
293.4 K	968.202	1538
293.65 K	968.039	1537.1
293.9 K	967.876	1536.2
294.15 K	967.713	1535.3
294.4 K	967.548	1534.4
294.65 K	967.388	1533.5
294.91 K	967.225	1532.7
295.15 K	967.061	1531.8
295.4 K	966.898	1530.9
295.66 K	966.735	1530
295.91 K	966.572	1529.1
296.16 K	966.408	1528.3
296.4 K	966.246	1527.4
296.66 K	966.084	1526.5
296.91 K	965.921	1525.6
297.16 K	965.758	1524.8
297.41 K	965.595	1523.9
297.66 K	965.433	1523
297.91 K	965.27	1522.2
298.16 K	965.108	1521.3
298.41 K	964.945	1520.5
298.66 K	964.781	1519.6
298.9 K	964.619	1518.8
299.15 K	964.457	1517.9
299.4 K	964.294	1517.1
299.66 K	964.132	–
299.91 K	963.968	1515.4
300.16 K	963.805	1514.5
300.4 K	963.642	1513.7
300.66 K	963.481	1512.8
300.9 K	963.318	1512
301.16 K	963.154	1511.2
301.41 K	962.991	1510.3
301.66 K	962.83	1509.5
301.91 K	962.666	1508.7
302.16 K	962.503	1507.8
302.41 K	962.341	1507
302.66 K	962.178	1506.1
302.91 K	962.013	1505.3
303.16 K	961.853	1504.5
303.41 K	961.689	1503.6
303.66 K	961.527	1502.8
303.91 K	961.364	1502
304.16 K	961.2	1501.2
304.41 K	961.038	1500.3
304.66 K	960.875	1499.5
304.91 K	960.712	1498.7
305.16 K	960.55	1497.9
305.41 K	960.387	1497
305.66 K	960.223	1496.2
305.91 K	960.061	1495.4
306.16 K	959.898	1494.6
306.4 K	959.736	1493.8
306.65 K	959.573	1493
306.91 K	959.409	1492.1
307.16 K	959.246	1491.3
307.41 K	959.083	1490.5
307.66 K	958.92	1489.7
307.91 K	958.759	1488.9
308.16 K	958.595	1488.1
308.4 K	958.43	1487.3
308.65 K	958.268	1486.5
308.91 K	958.105	1485.7
309.16 K	957.942	1484.9
309.4 K	957.779	1484.1
309.66 K	957.617	1483.3
309.91 K	957.453	1482.5
310.16 K	957.289	1481.7
310.41 K	957.128	1480.9
310.66 K	956.963	1480.1

— the NIST ThermoML archive (doi:10.1016/j.fluid.2010.08.022)
